Results published in patent US20180289721A1, “FULVESTRANT COMPOSITIONS” (THEMIS MEDICARE LIMITED, priority 2015, published 2018).
In brackets after ≈: the same amount, converted by molar mass. Read-outs that look alike come from different tables or passages of the source.

Tests used:
[1] = Solubility studies of fulvestrant in solvents, co-solvents, oils and release rate modifiers; assay type: physicochemical; settings: for solubility: read-out: Fulvestrant solubility achieved
Description: Solubility studies of fulvestrant were performed using various combinations of solvent, co-solvents, oils and release rate modifiers. The resultant data are shown herein below Table 1.

[2] = diethylene glycol monoethyl ether as the sole solvent, reported by Patel; cited from earlier work

- Fulvestrant solubility achieved ([1]; Benzyl alcohol (4 v/v %):Diethylene glycol monoethyl ether (q.s. to 1.7 mL)): 300 mg/1.7 mL
- Fulvestrant solubility achieved ([1]; Benzyl alcohol (5 v/v %):Diethylene glycol monoethyl ether (q.s. to 3.3 mL)): 500 mg/3.3 mL
- solubility ([1]; N-methyl pyrrolidone, organic solvent or mixture, N-methyl Pyrolidone): 250 mg/mL
- solubility ([1]; Polyethylene Glycol 400, organic solvent or mixture, Polyethylene Glycol 400): 11.1 mg/mL
- solubility ([1]; TCLS-101 (DMI), organic solvent or mixture, TCLS-101 (DMI)): 30.8 mg/mL
- solubility ([1]; oil or lipid, Benzyl alcohol (4 v/v %):Benzyl benzoate (10 w/v %):Castor oil (50 v/v %):Diethylene glycol monoethyl ether (q.s. to 1 mL)): 56 mg/mL
- solubility ([1]; oil or lipid, Benzyl alcohol (4 v/v %):Diethylene glycol monoethyl ether (31 v/v %):Castor oil (q.s. to 1 mL)): 30 mg/mL
- solubility ([1]; oil or lipid, Benzyl alcohol (4 v/v %):Diethylene glycol monoethyl ether (46 v/v %):Castor oil (q.s. to 1 mL)): 125 mg/mL
- solubility ([1]; oil or lipid, Benzyl alcohol (10 v/v %):Castor oil (50 v/v %):Diethylene glycol monoethyl ether (q.s. to 1 mL)): 151 mg/mL
- solubility ([1]; organic solvent or mixture, Benzyl alcohol (2 v/v %):Diethylene glycol monoethyl ether (q.s. to 1 mL)): 200 mg/mL
- solubility ([1]; organic solvent or mixture, Benzyl alcohol (2 v/v %):MCT oil (1 v/v %):Diethylene glycol monoethyl ether (q.s. to 1 mL)): 200 mg/mL
- solubility ([1]; organic solvent or mixture, Benzyl alcohol (4 v/v %):Diethylene glycol monoethyl ether (q.s. to 1.7 mL)): 176 mg/mL
- solubility ([1]; organic solvent or mixture, Benzyl alcohol (5 v/v %):Diethylene glycol monoethyl ether (q.s. to 3.3 mL)): 151 mg/mL
Compound: C[C@]12CC[C@@H]3c4ccc(O)cc4C[C@@H](CCCCCCCCC[S+]([O-])CCCC(F)(F)C(F)(F)F)[C@H]3[C@@H]1CC[C@@H]2O (stereo partly drawn) [Fulvestrant, 7-alpha-[9-[(4,4,5,5,5-pentafluoropentyl)sulfinyl]nonyl]estra-1,3,5(10)-triene-3,17-beta-diol]
- solubility [2]: 58.80 mg/mL (≈ 96.9 mM)
